According to PubChem BioAssay (NCI):
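Test compounds were applied to cells in 96-well plates for 48 hours at 5 doses. At the GI50, growth is halved. TGI: total growth inhibition.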

Columns and labels:
Test in all cases: inhibition of tumour cell growth, NCI panel, 48 h
A498 renal = system: A498 renal
CCRF-CEM leukemia = system: CCRF-CEM leukemia
EKVX NSCLC = system: EKVX NSCLC
HCT-15 colon = system: HCT-15 colon
OVCAR-3 ovarian = system: OVCAR-3 ovarian
OVCAR-4 ovarian = system: OVCAR-4 ovarian
SF-268 CNS = system: SF-268 CNS
SK-MEL-2 melanoma = system: SK-MEL-2 melanoma
SK-MEL-5 melanoma = system: SK-MEL-5 melanoma
SNB-19 CNS = system: SNB-19 CNS

| SMILES | GI50 (A498 renal) | TGI (A498 renal) | GI50 (CCRF-CEM leukemia) | TGI (CCRF-CEM leukemia) | GI50 (EKVX NSCLC) | TGI (EKVX NSCLC) | GI50 (HCT-15 colon) | TGI (HCT-15 colon) | GI50 (OVCAR-3 ovarian) | TGI (OVCAR-3 ovarian) | GI50 (OVCAR-4 ovarian) | TGI (OVCAR-4 ovarian) | GI50 (SF-268 CNS) | TGI (SF-268 CNS) | GI50 (SK-MEL-2 melanoma) | TGI (SK-MEL-2 melanoma) | GI50 (SK-MEL-5 melanoma) | TGI (SK-MEL-5 melanoma) | GI50 (SNB-19 CNS) | TGI (SNB-19 CNS) |
| --- | --- | --- | --- | --- | --- | --- | --- | --- | --- | --- | --- | --- | --- | --- | --- | --- | --- | --- | --- | --- |
| CCC(CO)Nc1nc(NCc2ccccc2)c2n[nH]c(C(C)C)c2n1 (centres undefined) | 11.6 µM | 24.4 µM | 6.55 µM | 52.6 µM | 12.1 µM | 27.4 µM | 14.7 µM | 49.7 µM | 7.32 µM | 22.7 µM | 6.81 µM | 25.6 µM | 10.7 µM | 26.4 µM | 5.15 µM | 21.4 µM | 4.91 µM | 17.3 µM | 15.8 µM | 30.5 µM |
| C=CCC1(CN(C)C)CC/C(=C\c2cc(OC)c(OC)c(OC)c2)C1=O (centres undefined) | – | 79 µM | – | 51.9 µM | – | 61.4 µM | – | 35.2 µM | – | 69.2 µM | – | 50.4 µM | – | 51.6 µM | – | > 100 µM | – | 35.3 µM | – | > 100 µM |
| NC(=O)c1ccc(I)c([N+](=O)[O-])c1 | > 78.7 µM | > 100 µM | > 63.7 µM | > 100 µM | 27.1 µM | > 65 µM | > 77.3 µM | > 100 µM | 55 µM | > 100 µM | 17.2 µM | 32.1 µM | > 100 µM | > 100 µM | > 100 µM | > 100 µM | > 100 µM | > 100 µM | > 100 µM | > 100 µM |
| Oc1ccc(Br)cc1C=NC1CCCCC1 | – | > 100 µM | – | > 100 µM | – | > 100 µM | – | > 100 µM | – | > 100 µM | – | > 100 µM | – | > 100 µM | – | 74.2 µM | – | 43.8 µM | – | > 100 µM |
| COc1cc(OCCCN2CCCC2)ccc1Nc1ncc(Cl)c(Nc2ccccc2P(C)(C)=O)n1 | 0.175 µM | 1.12 µM | 2.09 µM | 15.8 µM | 0.828 µM | > 20.5 µM | 3.67 µM | > 46.6 µM | 2.75 µM | 12 µM | 1.52 µM | 11.7 µM | 2.49 µM | 10.6 µM | 2.24 µM | 6.21 µM | 3.71 µM | 15.8 µM | 4.11 µM | 34.3 µM |
| COc1ccc(-c2oc3ncnc(N)c3c2-c2ccc(NC(=O)Nc3cc(C(F)(F)F)ccc3F)cc2)cc1 | 0.329 µM | 2.55 µM | 0.934 µM | 11.8 µM | 1.59 µM | 9.74 µM | 1.04 µM | 6.65 µM | 1.3 µM | 4.32 µM | 1.05 µM | 8.45 µM | 1.03 µM | 3.76 µM | 1.01 µM | 3.5 µM | 1.52 µM | 4.41 µM | 1.61 µM | 12.2 µM |
| Cn1c(=O)nc2n(-c3ccc(F)c(F)c3)c3ccccc3nc-2c1=O | – | > 100 µM | – | 42.2 µM | – | 17.7 µM | – | 20.4 µM | – | 10.3 µM | – | 21.1 µM | – | > 100 µM | – | 55.3 µM | – | 22.5 µM | – | 44.9 µM |
| O=c1oc2ccc(F)cc2c(=O)n1-c1ccc(I)cc1F | 0.191 µM | 0.646 µM | 1.83 µM | 52 µM | 0.831 µM | 7.27 µM | 0.471 µM | 10.9 µM | 0.37 µM | 6.36 µM | 0.298 µM | – | 0.435 µM | 8.25 µM | 0.344 µM | 1.9 µM | 0.224 µM | 0.521 µM | 0.409 µM | > 54.3 µM |
| NCCCNCc1c2ccccc2c(CNCCCN)c2ccccc12 | – | 76.8 µM | – | 46.6 µM | – | 43.5 µM | – | 54.1 µM | – | 98.5 µM | – | 26.5 µM | – | 20.2 µM | – | 28.2 µM | – | 66.6 µM | – | > 100 µM |
| C#Cc1cccc(Nc2nc(C)nc3cc(NC(=O)CCl)ccc23)c1 | 3.65 µM | 7.64 µM | 0.638 µM | 2.22 µM | 3.13 µM | 7.62 µM | 0.687 µM | 2.64 µM | 2.7 µM | 6.06 µM | 1.83 µM | 6.05 µM | 2.62 µM | 6.82 µM | 3.9 µM | 7.9 µM | 3.56 µM | 7.04 µM | 1.29 µM | 4.29 µM |
| COC(=O)C(/C(=N/N)C(=O)Nc1cc(Cl)ccc1Cl)c1nc2ccc([N+](=O)[O-])cc2[nH]c1=O (centres undefined) | – | > 100 µM | – | > 100 µM | – | > 100 µM | – | > 100 µM | – | > 100 µM | – | > 100 µM | – | > 100 µM | – | > 100 µM | – | > 100 µM | – | > 100 µM |
| O=C(Nc1ccc(Cl)cc1)c1cc(NCc2cc(O)ccc2O)ccc1O | 17.1 µM | 47.1 µM | 0.605 µM | 6.79 µM | 5.5 µM | 23.7 µM | 1.81 µM | 6.01 µM | 2.9 µM | 9.9 µM | 2.9 µM | > 100 µM | 3.04 µM | 14 µM | 12.2 µM | 27.3 µM | 6.12 µM | 20 µM | 8.33 µM | 21.2 µM |
| Cc1ccc(NC(=O)C(=O)C2C(=O)NC(=O)NC2=O)c(C)c1 | – | > 100 µM | – | > 100 µM | – | > 100 µM | – | > 100 µM | – | > 100 µM | – | > 100 µM | – | > 100 µM | – | > 100 µM | – | > 100 µM | – | > 100 µM |
| NC1=C(O)/C(=N/NS(=O)(=O)c2ccccc2)C(c2ccc3c(c2)OCO3)O1 (centres undefined) | – | > 100 µM | – | > 100 µM | – | > 100 µM | – | > 100 µM | – | > 100 µM | – | > 100 µM | – | > 100 µM | – | > 100 µM | – | > 100 µM | – | > 100 µM |
